From patent US6465176B1, “Method for identifying compounds RNA/RNA binding protein interactions” (Message Pharmaceuticals, Inc., priority 1998, dated 2002)

Legend:
[1] = tested on: AUUUA RNA / RNA binding protein (K562 extract); assay: High throughput filter binding assay, 32P-labeled AUUUA RNA with K562 protein extract (exploratory library screen)
Text: FIG. 4 is a graph of the amount of radioactively labeled RNA retained on a filter (expressed in percent of the amount of RNA retained on a filter in a reference binding solution) following loading of various binding solutions. All of the binding solutions contained radioactively labeled AUUUA RNA either alone or including various other components. The first column represents a binding solution without RNA binding protein. The remaining columns represent binding solution containing RNA binding protein (K562 extract). Columns 3 through 8 correspond to binding solutions including the indicated test compound.
(§1) All binding reactions were performed in 96-well v-bottom plates in a final volume of 10 μl. The assays were constituted and performed as described below. Specifically, assays were performed by (1) forming a binding solution including RNA molecules, 7.5 mM BTP at pH 8.5, 10 mM KCl, 5 mM MgCl2, 0.2 mM DTT, and 10% glycerol, (2) heating the binding solution to denature the RNA molecules, (3) cooling the binding solution, (4) adding RNA binding proteins to the binding solution, (5) loading the binding solution onto a filter, and (6) detecting the amount RNA retain on the filter.
The library was initially screened at 10 μM against ^32P-labeled AUUUA RNA. Several methods of introducing the compounds into the binding reaction were tested. Initially the compounds were co-incubated with the RNA and protein, producing modest results. Next, preincubation with either the protein extract or the RNA was tried with improved results.
Seventeen compounds were chosen for further analysis at 100 nM, 1 μM and 10 μM using both AUUUA and IRE RNAs based on the results from three screening efforts (Exps. 29-31). Table 1 summarizes the results from these compounds at 10 μM. The results are also shown graphically in FIG. 4. […] Compounds D9 and H2, chosen as negative controls from the initial screening, continued to have no effect in the dose dependent screen (Exp. 33) and were identified as vehicle controls.
A 96 member random compound library was screened with the disclosed high throughput assay. The compounds were initially screened at 10 μM against ^32P-labeled AUUUA RNA. […] Seventeen compounds were chosen for further analysis at 100 nM, 1 μM and 10 μM using both AUUUA and IRE RNA molecules to determine if any selectivity of the compounds could be detected. […] Gel shifts of these compounds using AUUUA RNA confirmed the activity of the inhibitors.

TNF-α production = settings: previously shown; cited from earlier work
[2] = tested on: IRE RNA / RNA binding protein (K562 protein extract); assay: High throughput filter binding assay, IRE RNA with K562 protein extract; settings: increasing concentrations: hemin 1 to 100 μM, FeCl3 and desferroxiamine 1 μM to 1 mM
Text: FIG. 3 is a graph of the amount of radioactively labeled RNA retained on a filter (expressed in percent of the amount of RNA retained on a filter in a reference binding solution) following loading of various binding solutions. All of the binding solutions contained radioactively labeled IRE RNA either alone or including various other components. The first column represents a binding solution without RNA binding protein. The remaining columns represent binding solution containing RNA binding protein (K562 extract).
FIG. 5 is a graph of the amount of radioactively labeled RNA retained on a filter (expressed in percent of the amount of RNA retained on a filter in a reference binding solution) following loading of various binding solutions. Alternate columns correspond to binding solutions containing radioactively labeled AUUUA RNA or IRE RNA, either alone or including various other components. The first two column represents binding solutions without RNA binding protein. The remaining columns represent binding solution containing RNA binding protein (K562 extract). Columns 5 through 40 correspond to binding solutions including the indicated amount of the indicated test compound.
All binding reactions were performed in 96-well v-bottom plates in a final volume of 10 μl. The assays were constituted and performed as described below. Specifically, assays were performed by (1) forming a binding solution including RNA molecules, 7.5 mM BTP at pH 8.5, 10 mM KCl, 5 mM MgCl2, 0.2 mM DTT, and 10% glycerol, (2) heating the binding solution to denature the RNA molecules, (3) cooling the binding solution, (4) adding RNA binding proteins to the binding solution, (5) loading the binding solution onto a filter, and (6) detecting the amount RNA retain on the filter. […]
Binding assays were performed with wild-type IRE RNA and K562 protein extract in the presence of sources of iron or iron chelators to determine the ability of the filter assay to detect the modulation of binding interactions by small molecules. […] The reactions were analyzed by gel shifts to visualize the results of the filter assay. […]

[3] = tested on: His RNA / RNA binding protein; assay: Filter binding competition assay, His RNA; settings: increasing concentrations of unlabeled RNA
Description: as §1
To more fully test the filter assay, competitions were performed with U1 and His RNAs as well. U1 RNA has the sequence AAUCCAUUGCAC UCCGGAUUU (SEQ ID NO:10; M14587). His RNA has the sequence […] (SEQ ID NO:11; X57138). […] The results of the U1 and His filter assay competitions reflect the ability of the assay to detect low affinity as well as higher affinity binding interactions.
Competition studies have been performed using the filter assay in which unlabeled wild-type or mutant RNA is added to the reaction at 100 to 10,000 times the concentration of ^32P-RNA to compete for the protein binding of the radiolabeled RNA. […] In this case, the mutant RNA has a weak binding affinity for the RNA binding protein. […]

[4] = tested on: U1 RNA / RNA binding protein (K562 extract); assay: Filter binding competition assay, U1 RNA; settings: increasing concentrations of unlabeled RNA
Text: FIG. 2 is a graph of the amount of radioactively labeled RNA retained on a filter (expressed in percent of the amount of RNA retained on a filter in a reference binding solution) following loading of various binding solutions. All of the binding solutions contained radioactively labeled U1 RNA either alone or including various other components. The first two columns represent binding solutions without RNA binding protein. The remaining columns represent binding solution containing RNA binding protein (K562 extract). […] In this instance, the U1 mutant interacts with less affinity than does the wild type sequence.
as §1
To more fully test the filter assay, competitions were performed with U1 and His RNAs as well. U1 RNA has the sequence AAUCCAUUGCAC UCCGGAUUU (SEQ ID NO:10; M14587). His RNA has the sequence […] […]

[5] = compound 10 μM, K562 extract, RNA & K562 = 100.00

C/C(=N\NC(=N)N)c1cc(NC(=O)CCCCCCCCC(=O)Nc2cc(/C(C)=N/NC(=N)N)cc(/C(C)=N/NC(=N)N)c2)cc(/C(C)=N/NC(=N)N)c1 [Compound G10, CNI-1493]
effect on counts over the 4 experiments ([1]; 10 μM): substantial increase in counts in 3 of the 4 experiments | Avg. % (labeled RNA retained on filter, average of Experiments #29-#31 and #33) ([1]; compound 10 μM, K562 extract): 111.00% | Labeled RNA retained on filter, percent of RNA & K562 reference, Experiment #29 [1, 5]: 114.53% | Labeled RNA retained on filter, percent of RNA & K562 reference, Experiment #30 [1, 5]: 66.94% | Labeled RNA retained on filter, percent of RNA & K562 reference, Experiment #31 [1, 5]: 127.28% | Labeled RNA retained on filter, percent of RNA & K562 reference, Experiment #33 [1, 5]: 135.24% | effect on TNF-α production (TNF-α production): post-transcriptionally inhibit TNF-α production

CC(=O)N(O)CCCCCNC(=O)CCC(=O)N(O)CCCCCNC(=O)CCC(=O)N(O)CCCCCN [Desferroxiamine, desferroxiamine]
modulation of IRE/protein binding by small molecules [2]: did not change the amount IRE/protein complex formed

[Cl][Fe]([Cl])[Cl] [FeCl3]
modulation of IRE/protein binding by small molecules [2]: concentration-dependent inhibition of binding

His wild-type RNA: His RNA, sequence AAAAAGGCUCUUUUCAGAGCCACCCA (SEQ ID NO:11) (listed as RNA, chemistry not given here)
competition by unlabeled RNA for binding of labeled His RNA (filter assay) [3]: concentration dependent inhibition of binding

U1 wild-type RNA: U1 RNA, sequence AAUCCAUUGCAC UCCGGAUUU (SEQ ID NO:10) (AAUCCAUUGCACUCCGGAUUU; listed as RNA, chemistry not given here)
competition by unlabeled RNA for binding of labeled U1 RNA (filter assay) [4]: concentration dependent inhibition of binding

hemin
modulation of IRE/protein binding by small molecules [2]: concentration-dependent inhibition of binding
